Among the data in PubChem BioAssay AID248 (DTP/NCI, 2004) are T/C values, retold here.

Where “and” joins values, the source holds several entries; their conditions need not be identical. Equal entries are not always repeated. Inconclusive results and toxic doses are left out.

The subject of the assay is L1210 leukemia ip in BDF1 mice, survival T/C. Kind of assay: NCI In Vivo Anticancer Drug Screen. Data for tumor model L1210 Leukemia (intraperitoneal) in B6D2F1 (BDF1) mice. The conditions noted are these: endpoint: mean survival time, higher = longer survival. The essentials:
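Mice bearing the transplanted tumor received compound or vehicle. Survival of the treated group was divided by that of the vehicle-treated control group to give the ratio.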

Setting [1] is: dose: 100.0 mg/kg/injection, schedule: Q01DX001 (ip), vehicle: saline.
[2] abbreviates: dose: 100.0 mg/kg/injection, schedule: Q01DX009 (ip), vehicle: saline.
[3] abbreviates: dose: 100.0 mg/kg/injection, schedule: Q04DX003 (ip), vehicle: saline.
Setting [4] is: dose: 200.0 mg/kg/injection, schedule: Q01DX001 (ip), vehicle: saline.
[5] abbreviates: dose: 200.0 mg/kg/injection, schedule: Q01DX009 (ip), vehicle: saline.
Where [6] appears, read: dose: 200.0 mg/kg/injection, schedule: Q04DX003 (ip), vehicle: saline.
[7] abbreviates: dose: 400.0 mg/kg/injection, schedule: Q01DX001 (ip), vehicle: saline.
Setting [8] is: dose: 400.0 mg/kg/injection, schedule: Q01DX009 (ip), vehicle: saline.
[9] abbreviates: dose: 100.0 mg/kg/injection, schedule: Q04DX003 (ip), vehicle: saline with Tween-80.
[10] abbreviates: dose: 100.0 mg/kg/injection, schedule: Q01DX009 (ip), vehicle: Klucel (hydroxypropylcellulose) (HPC).
Setting [11] is: dose: 200.0 mg/kg/injection, schedule: Q01DX009 (ip), vehicle: Klucel (hydroxypropylcellulose) (HPC).
[12] abbreviates: dose: 400.0 mg/kg/injection, schedule: Q01DX009 (ip), vehicle: Klucel (hydroxypropylcellulose) (HPC).
[13] abbreviates: dose: 100.0 mg/kg/injection, schedule: Q01DX001 (ip), vehicle: Klucel (hydroxypropylcellulose) (HPC).
[14] abbreviates: dose: 200.0 mg/kg/injection, schedule: Q01DX001 (ip), vehicle: Klucel (hydroxypropylcellulose) (HPC).
Setting [15] is: dose: 50.0 mg/kg/injection, schedule: Q01DX001 (ip), vehicle: saline.
Setting [16] is: dose: 75.0 mg/kg/injection, schedule: Q01DX001 (ip), vehicle: saline.
The mark [17] stands for this setting: dose: 150.0 mg/kg/injection, schedule: Q01DX001 (ip), vehicle: saline.
Setting [18] is: dose: 100.0 mg/kg/injection, schedule: Q01DX009 (ip), vehicle: saline with Tween-80.

Turning to `Clc1cc[n+](-c2ccncc2)cc1`, the T/C runs as follows: under setting [1], 103 % of control; under setting [2], 100 % of control and 105 % of control; (dose: 100.0 mg/kg/injection, schedule: Q04DX002 (ip), vehicle: saline) 97 % of control and 103 % of control; under setting [3], 95 % of control; under setting [4], 90 % of control; under setting [5], 105 % of control and 89 % of control. For the same compound, the T/C (dose: 200.0 mg/kg/injection, schedule: Q04DX002 (ip), vehicle: saline) was 94 % of control and 89 % of control; the T/C under setting [6] is 101 % of control; the T/C under setting [7] was 97 % of control; the T/C under setting [8] was 97 % of control; the T/C (dose: 400.0 mg/kg/injection, schedule: Q04DX002 (ip), vehicle: saline) is 100 % of control and 92 % of control; the T/C (dose: 400.0 mg/kg/injection, schedule: Q04DX003 (ip), vehicle: saline) is 88 % of control.
On to `O=C(O)c1c(O)cc(O)cc1O`, for which the T/C by setting is: under setting [9], 95 % of control; (dose: 200.0 mg/kg/injection, schedule: Q04DX003 (ip), vehicle: saline with Tween-80) 95 % of control.
For the compound `Cc1ccc(S(=O)NNc2ccccc2)cc1` (stereo unspecified), the T/C was 93 % of control under setting [1], 104 % of control under setting [4] and 93 % of control under setting [7].
`Clc1ccc(CN2COc3c(ccc4cccnc34)C2)cc1Cl`: the T/C was 105 % of control (dose: 100.0 mg/kg/injection, schedule: Q04DX003 (ip), vehicle: saline sonified); 94 % of control (dose: 200.0 mg/kg/injection, schedule: Q04DX003 (ip), vehicle: saline sonified); 100 % of control (dose: 400.0 mg/kg/injection, schedule: Q04DX003 (ip), vehicle: saline sonified).
As to `Cc1ccc(CSCc2ccc(C)cc2)cc1`, the T/C is 100 % of control under setting [10], 96 % of control under setting [11] and 92 % of control under setting [12].
For the compound `Cc1cc(C)c(C)c(NC(=O)NCCCl)c1C`, the T/C by setting is: under setting [13], 92 % of control; under setting [14], 88 % of control.
On to `COc1cccc(N=CN(C)C)c1`, for which the T/C runs as follows: under setting [15], 90 % of control; under setting [1], 104 % of control.
In the case of `O=C1NC(c2cccc3ccccc23)Nc2ccc(Cl)cc21` (stereo unspecified), the T/C was 108 % of control and 109 % of control (dose: 50.0 mg/kg/injection, schedule: Q01DX009 (ip), vehicle: Klucel (hydroxypropylcellulose) (HPC)); 116 % of control (dose: 150.0 mg/kg/injection, schedule: Q01DX009 (ip), vehicle: Klucel (hydroxypropylcellulose) (HPC)).
In the case of `CCC(=O)N(CC)CC`, the T/C by setting is: under setting [15], 102 % of control; under setting [1], 93 % of control; under setting [7], 93 % of control.
For the compound `O=[N+]([O-])c1ccc(NN=C2c3ccccc3Cc3ccccc32)c([N+](=O)[O-])c1`, the T/C is, setting by setting: (dose: 100.0 mg/kg/injection, schedule: Q04DX002 (ip), vehicle: saline with Tween-80) 87 % of control; (dose: 400.0 mg/kg/injection, schedule: Q04DX002 (ip), vehicle: saline with Tween-80) 94 % of control.
Consider `CC1C2CCC1(C)C(C=O)C2` (stereo unspecified), for which the T/C by setting is: under setting [16], 93 % of control; under setting [17], 88 % of control; (dose: 300.0 mg/kg/injection, schedule: Q01DX001 (ip), vehicle: saline) 88 % of control.
Turning to `CCOC(=O)CN1C(=O)NC(CC)(CC)C1=O`, the T/C by setting is: under setting [2], 96 % of control; (dose: 100.0 mg/kg/injection, schedule: Q04DX003 (ip), vehicle: acetone) 104 % of control; under setting [5], 94 % of control; (dose: 200.0 mg/kg/injection, schedule: Q04DX003 (ip), vehicle: acetone) 107 % of control; under setting [8], 105 % of control; (dose: 400.0 mg/kg/injection, schedule: Q04DX003 (ip), vehicle: acetone) 102 % of control.
On to `Nc1ncnc(N)c1NC(=O)c1ccc(-c2ccccc2)cc1`, for which the T/C runs as follows: under setting [9], 91 % of control; (dose: 400.0 mg/kg/injection, schedule: Q04DX003 (ip), vehicle: saline with Tween-80) 86 % of control.
As for `CCOC(=O)C1(C)OC1c1ccc2c(c1)OCO2` (stereo unspecified), the T/C was 106 % of control under setting [18]; 95 % of control (dose: 200.0 mg/kg/injection, schedule: Q01DX009 (ip), vehicle: saline with Tween-80); 103 % of control (dose: 400.0 mg/kg/injection, schedule: Q01DX009 (ip), vehicle: saline with Tween-80).
In the case of `COc1ccc(C(=O)OCc2ccccc2CN2CCCC2)cc1`, the T/C was 102 % of control under setting [13] and 98 % of control under setting [14].
For the compound `ClCCn1nc2c(c1-c1ccc(Cl)cc1)CCc1ccccc1-2`, the T/C is 92 % of control (dose: 100.0 mg/kg/injection, schedule: Q04DX003 (ip), vehicle: gum acacia); 98 % of control (dose: 200.0 mg/kg/injection, schedule: Q04DX003 (ip), vehicle: gum acacia); 95 % of control (dose: 400.0 mg/kg/injection, schedule: Q04DX003 (ip), vehicle: gum acacia).
As for `O=[N+]([O-])c1cc(Cl)cc2c1nc(Cl)c1ccccc12`, the T/C reads like this: under setting [10], 94 % of control; (dose: 100.0 mg/kg/injection, schedule: Q04DX003 (ip), vehicle: Klucel (hydroxypropylcellulose) (HPC)) 100 % of control; under setting [11], 91 % of control; (dose: 200.0 mg/kg/injection, schedule: Q04DX003 (ip), vehicle: Klucel (hydroxypropylcellulose) (HPC)) 98 % of control; under setting [12], 91 % of control; (dose: 400.0 mg/kg/injection, schedule: Q04DX003 (ip), vehicle: Klucel (hydroxypropylcellulose) (HPC)) 100 % of control.
As for `NNC(=O)c1ccc([N+](=O)[O-])cc1`, the T/C (dose: 25.0 mg/kg/injection, schedule: Q01DX009 (ip), vehicle: saline with Tween-80) was 97 % of control; the T/C (dose: 50.0 mg/kg/injection, schedule: Q01DX009 (ip), vehicle: saline with Tween-80) was 92 % of control; the T/C under setting [18] was 95 % of control; the T/C under setting [9] was 95 % of control.
On to `NC(N)=NCCCCNCCCN=C(N)N`, for which the T/C is, setting by setting: under setting [16], 98 % of control; under setting [17], 107 % of control.
As for `O=NN(CCCl)C(=O)Nc1ccc(C(=O)O)cc1`, the T/C runs as follows: (dose: 1.5 mg/kg/injection, schedule: Q01DX Z (ip), vehicle: saline) 171 % of control; (dose: 2.0 mg/kg/injection, schedule: Q01DX Z (ip), vehicle: saline) 162 % of control; (dose: 2.5 mg/kg/injection, schedule: Q01DX001 (ip), vehicle: carboxymethylcellulose (CMC)) 118 % of control and 124 % of control; (dose: 3.75 mg/kg/injection, schedule: Q## X001 (ip), vehicle: carboxymethylcellulose (CMC)) 106 % of control; (dose: 4.5 mg/kg/injection, schedule: Q01DX Z (ip), vehicle: carboxymethylcellulose (CMC)) 151 % of control; (dose: 5.0 mg/kg/injection, schedule: Q01DX001 (ip), vehicle: carboxymethylcellulose (CMC)) 153 % of control and 182 % of control. For the same compound, the T/C by setting is: (dose: 9.0 mg/kg/injection, schedule: Q01DX Z (ip), vehicle: carboxymethylcellulose (CMC)) 117 % of control; (dose: 15.0 mg/kg/injection, schedule: Q01DX001 (ip), vehicle: carboxymethylcellulose (CMC)) 151 % of control and 168 % of control and 190 % of control; (dose: 15.0 mg/kg/injection, schedule: Q## X001 (ip), vehicle: carboxymethylcellulose (CMC)) 152 % of control; (dose: 20.0 mg/kg/injection, schedule: Q01DX001 (ip), vehicle: carboxymethylcellulose (CMC)) 152 % of control; (dose: 30.0 mg/kg/injection, schedule: Q01DX001 (ip), vehicle: carboxymethylcellulose (CMC)) 218 % of control and 227 % of control; (dose: 30.0 mg/kg/injection, schedule: Q## X001 (ip), vehicle: carboxymethylcellulose (CMC)) 191 % of control.
Regarding `O=[N+]([O-])c1ccc(N/N=C(/Cl)c2ccccc2)cc1`, the T/C is, setting by setting: (dose: 50.0 mg/kg/injection, schedule: Q04DX003 (ip), vehicle: saline) 101 % of control; under setting [3], 98 % of control; under setting [6], 96 % of control.
For `CCCCCC1(C)OCC(C)(C)N1O` (stereo unspecified), the T/C is, setting by setting: under setting [1], 104 % of control; under setting [4], 102 % of control; under setting [7], 111 % of control.
With `CCOC(=O)/C(=C\C(C(=O)OCC)C(=O)OCC)CC`, the T/C under setting [1] is 106 % of control, the T/C under setting [4] was 103 % of control and the T/C under setting [7] was 95 % of control.
